Series [1] relates to cryopreserved primary human hepatocytes (PHH) in 2Dsw culture. Nature of the series: Repeated-dose cytotoxicity.
The test system of series [2] is cryopreserved primary human hepatocytes (PHH) in 3D spheroid culture. Nature of the series: Repeated-dose cytotoxicity. It counts as cell-based.
[3] abbreviates: after long-term exposure, chosen treatment regimen.

Turning to `COc1ccccc1Oc1c(NS(=O)(=O)c2ccc(C(C)(C)C)cc2)nc(-c2ncccn2)nc1OCCO` [bosentan], the results for the “sensitivity of PHH in 2Dsw compared with 3D spheroids” value in series [1] (after 7 days (3 treatments)) and in series [1] (at 14 days (6 treatments)) were “higher” and “equal sensitivity”, respectively.

Consider `O=C(O)Cc1ccccc1Nc1c(Cl)cccc1Cl` [diclofenac], for which, in series [1] (setting [3]), the “sensitivity of PHH in 2Dsw compared with 3D spheroids” value is given as “substantially lower sensitivities”.

Regarding `O=c1[nH]c(=O)n([C@@H]2O[C@H](CO)[C@@H](O)[C@@H]2F)cc1I` [fialuridine], the “EC50 (50% reduction in viability, ATP)” value in series [1] (2Dsw culture, any of the 3 PHH donors, up to 14 days repeated exposure) was “could not be attained”. Moreover, the “sensitivity of PHH in 2Dsw compared with 3D spheroids” value in series [1] (setting [3]) is on record as “substantially lower sensitivities”.

For `CCc1ccc(CCOc2ccc(CC3SC(=O)NC3=O)cc2)nc1` (stereo not shown) [pioglitazone], the “toxicity (ATP viability)” value in series [1] (2Dsw culture, up to 14 days) is recorded as “non-toxic”; in series [2] (3D spheroid culture, up to 14 days), “non-toxic”.

Take `Cc1c(C)c2c(c(C)c1O)CCC(C)(COc1ccc(CC3SC(=O)NC3=O)cc1)O2` (stereo not shown) [troglitazone]: the “donors in which toxicity was indicated” value in series [1] (2Dsw culture, 3 donors tested) is 1 of the 3 donors. Further, in series [1] (setting [3]), the “sensitivity of PHH in 2Dsw compared with 3D spheroids” value is reported as “substantially lower sensitivities”. Moreover, in series [2] (3D spheroids, after 72 hours (single treatment), 3 donors tested), the “donors in which toxicity was identified at relevant concentrations” value is “all 3 donors”.

Source of the values: PMC5888952 (Toxicological Sciences, 2018).
